PubChem BioAssay (NCI)
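Compound exposure: 48 hours, 5 concentrations, 96-well plates. TGI is the concentration that stops growth completely.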

Legend:
Test in all cases: inhibition of tumour cell growth, NCI panel, 48 h
[1] = system: SF-268 CNS
[2] = system: MDA-MB-435
[3] = system: NCI-H23 lung
[4] = system: SW-620 colon
[5] = system: HT29 colon
[6] = system: SF-539 CNS
[7] = system: SK-MEL-28 melanoma
[8] = system: NCI/ADR-RES ovarian
[9] = system: NCI-H226 lung
[10] = system: BT-549 breast
[11] = system: COLO 205 colon
[12] = system: M14 melanoma
[13] = system: LOX IMVI melanoma
[14] = system: HCT-116 colon
[15] = system: SK-MEL-5 melanoma
[16] = system: MCF7 breast
[17] = system: EKVX NSCLC
[18] = system: TK-10 renal
[19] = system: SNB-75 CNS
[20] = system: SN12C renal
[21] = system: IGROV1 ovarian
[22] = system: PC-3 prostate
[23] = system: RPMI-8226 leukemia
[24] = system: ACHN renal
[25] = system: A498 renal
[26] = system: UACC-257 melanoma
[27] = system: UO-31 renal
[28] = system: CAKI-1 renal
[29] = system: SK-OV-3 ovarian
[30] = system: MDA-MB-231 breast
[31] = system: OVCAR-3 ovarian
[32] = system: OVCAR-8 ovarian
[33] = system: UACC-62 melanoma
[34] = system: HL-60(TB) leukemia
[35] = system: U251 CNS
[36] = system: SNB-19 CNS
[37] = system: 786-0 renal
[38] = system: HCT-15 colon
[39] = system: SK-MEL-2 melanoma
[40] = system: SF-295 CNS
[41] = system: HCC-2998 colon
[42] = system: SR leukemia
[43] = system: CCRF-CEM leukemia
[44] = system: NCI-H522 lung
[45] = system: MOLT-4 leukemia
[46] = system: MDA-N
[47] = system: A549 NSCLC
[48] = system: MALME-3M melanoma
[49] = system: NCI-H460 lung
[50] = system: RXF 393 renal
[51] = system: KM12 colon
[52] = system: OVCAR-5 ovarian
[53] = system: DU-145 prostate
[54] = system: K-562 leukemia
[55] = system: HS 578T breast
[56] = system: OVCAR-4 ovarian
[57] = system: HOP-62 NSCLC
[58] = system: HOP-92 NSCLC
[59] = system: T-47D breast

Compound: CN1C(=O)N(C)C(O)C(Cl)(Br)C1=O (stereo not drawn)
- TGI [1]: > 100 µM
- TGI [2]: > 100 µM
- TGI [3]: > 100 µM
- TGI [4]: > 100 µM
- TGI [5]: > 100 µM
- TGI [6]: > 100 µM
- TGI [7]: > 100 µM
- TGI [8]: > 100 µM
- TGI [9]: > 100 µM
- TGI [10]: > 100 µM
- TGI [11]: > 100 µM
- TGI [12]: > 100 µM
- TGI [13]: > 100 µM
- TGI [14]: > 100 µM
- TGI [15]: > 100 µM
- TGI [16]: > 100 µM
- TGI [17]: > 100 µM
- TGI [18]: > 100 µM
- TGI [19]: > 100 µM
- TGI [20]: > 100 µM
- TGI [21]: > 100 µM
- TGI [22]: > 100 µM
- TGI [23]: > 100 µM
- TGI [24]: > 100 µM
- TGI [25]: > 100 µM
- TGI [26]: > 100 µM
- TGI [27]: > 100 µM
- TGI [28]: > 100 µM
- TGI [29]: > 100 µM
- TGI [30]: > 100 µM
- TGI [31]: > 100 µM
- TGI [32]: > 100 µM
- TGI [33]: > 100 µM
- TGI [34]: > 100 µM
- TGI [35]: > 100 µM
- TGI [36]: > 100 µM
- TGI [37]: > 100 µM
- TGI [38]: > 100 µM
- TGI [39]: > 100 µM
- TGI [40]: > 100 µM
- TGI [41]: > 100 µM
- TGI [42]: > 100 µM
- TGI [43]: > 100 µM
- TGI [44]: > 100 µM
- TGI [45]: > 100 µM
- TGI [46]: > 100 µM
- TGI [47]: > 100 µM
- TGI [48]: > 100 µM
- TGI [49]: > 100 µM
- TGI [50]: > 100 µM
- TGI [51]: > 100 µM
- TGI [52]: > 100 µM
- TGI [53]: > 100 µM
- TGI [54]: > 100 µM
- TGI [55]: > 100 µM

Compound: C/C(Cl)=N\OC(=O)Nc1ccc(C)cc1
- TGI [1]: 32.9 µM
- TGI [3]: 39 µM
- TGI [4]: 33 µM
- TGI [5]: 41.6 µM
- TGI [6]: 35.8 µM
- TGI [56]: 32.9 µM
- TGI [7]: 28.1 µM
- TGI [8]: 42.1 µM
- TGI [57]: > 100 µM
- TGI [11]: 33.3 µM
- TGI [12]: 30.9 µM
- TGI [13]: 43.7 µM
- TGI [14]: 38.6 µM
- TGI [15]: 31.5 µM
- TGI [16]: 25.3 µM
- TGI [17]: 32.3 µM
- TGI [18]: 28.5 µM
- TGI [19]: 26.3 µM
- TGI [20]: 33.7 µM
- TGI [21]: 32.5 µM
- TGI [22]: 29.3 µM
- TGI [24]: 29.1 µM
- TGI [25]: 32.9 µM
- TGI [26]: 32.9 µM
- TGI [27]: 31.3 µM
- TGI [28]: 30.4 µM
- TGI [29]: 31.1 µM
- TGI [30]: 37.5 µM
- TGI [31]: 34.3 µM
- TGI [32]: 32.4 µM
- TGI [35]: 29.9 µM
- TGI [36]: > 100 µM
- TGI [37]: 32.7 µM
- TGI [58]: 37.1 µM
- TGI [38]: 31.5 µM
- TGI [39]: 33.1 µM
- TGI [40]: 30.5 µM
- TGI [41]: 31.4 µM
- TGI [43]: 6.31 µM
- TGI [46]: 29.9 µM
- TGI [47]: 35.6 µM
- TGI [59]: 48.2 µM
- TGI [48]: 31 µM
- TGI [49]: 33.4 µM
- TGI [51]: 35.1 µM
- TGI [52]: 32.6 µM
- TGI [54]: > 100 µM
- TGI [55]: 83 µM
